From the supplement of paper PMC10307832

Legend:
Assay in all cases: relative viability (nuclei count vs DMSO), 5 days (fraction); higher = more cells survive
[1] = compound: C1COCCN1C2=NC(=NC3=C2OC4=C3C=CC=N4)C5=CC(=CC=C5)NC(=O)C6=CN=C(C=C6)N + CC(=O)Nc1cccc(-n2c(=O)n(C3CC3)c(=O)c3c(Nc4ccc(I)cc4F)n(C)c(=O)c(C)c32)c1 [Trametinib] (partner 0.02 µM)
Procedure, shortened: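 Values are medians from duplicate plates. Each reflects relative viability, defined as the nuclei count of treated wells over that of vehicle wells. Lung cancer cell lines in 1536-well plates were pin-tool dosed one day after seeding with one drug alone or with a fixed anchor-drug dose plus five library-drug doses (not always all listed) in √10 steps, then fixed, stained and imaged at 4× after 5 days.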

[2] = compound: C1COCCN1C2=NC(=NC3=C2OC4=C3C=CC=N4)C5=CC(=CC=C5)NC(=O)C6=CN=C(C=C6)N
Procedure, shortened: (§1)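 MetaXpress counted nuclei in 4× images of lung cancer cell lines that had been fixed, permeabilised and Hoechst-stained in one step. Before that, cells in 1536-well plates were kept overnight at 37 °C, pinned with five √10-spaced library-drug doses on vehicle-anchored plates, and cultured 5 days without medium change. Viability takes treated-well nuclei over vehicle-well nuclei and uses the median across plates. Plates were accepted only at control CV below 25% and at least one doubling.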

[3] = compound: Nc1ccccc1NC(=O)c1ccc(CNC(=O)OCc2cccnc2)cc1 [Entinostat]
Procedure, shortened: as §1

[4] = compound: CN1CCC(CNc2ccc3ncc(-c4cccc(OC(F)(F)F)c4)n3n2)CC1 [SGI-1776]
Procedure, shortened: as §1

Row | Cell Line | relative viability ([1]; first compound 0.02 µM) | relative viability ([1]; first compound 0.06325 µM) | relative viability ([1]; first compound 0.2 µM) | relative viability ([1]; first compound 0.6325 µM) | relative viability ([1]; first compound 2 µM) | relative viability ([2]; 0.02 µM) | relative viability ([2]; 0.06325 µM) | relative viability ([2]; 0.2 µM) | relative viability ([2]; 0.6325 µM) | relative viability ([2]; 2 µM) | relative viability ([3]; 0.02 µM) | relative viability ([3]; 0.06325 µM) | relative viability ([3]; 0.2 µM) | relative viability ([3]; 0.6325 µM) | relative viability ([3]; 2 µM) | relative viability ([4]; 0.08 µM) | relative viability ([4]; 0.8 µM) | relative viability ([4]; 2.53 µM) | relative viability ([4]; 8 µM)
1 | NCI-H1355 | 0.452 | 0.427 | 0.395 | 0.367 | 0.372 | 0.967 | 1.04 | 0.998 | 0.959 | 0.888 | 0.975 | 0.918 | 0.823 | 0.638 | 0.523 | 1.01 | 1.06 | 0.994 | 0.888
2 | NCI-H1793 | 0.55 | 0.371 | 0.366 | 0.46 | 0.355 | 0.822 | 1.01 | 0.793 | 0.876 | 0.644 | 1.03 | 1.03 | 0.966 | 0.488 | 0.405 | 0.815 | 1.31 | 0.931 | 0.783
3 | NCI-H1734 | 0.657 | 0.816 | 0.67 | 0.635 | 0.512 | 0.994 | 1.06 | 0.929 | 0.931 | 0.613 | 1.04 | 1.16 | 1.04 | 0.862 | 0.628 | 0.946 | 0.945 | 1.04 | 0.842
4 | LXF-289 | 0.676 | 0.769 | 0.671 | 0.67 | 0.462 | 1.06 | 1.03 | 1.07 | 0.995 | 0.8 | 1 | 0.978 | 0.952 | 0.711 | 0.63 | 1.01 | 1.05 | 1.05 | 0.959
5 | PC-3 [JPC-3] | 0.65 | 0.696 | – | 0.843 | 0.659 | 1.06 | 1.05 | 1.06 | 1.03 | 0.927 | 1.03 | 1.01 | 1.02 | 0.57 | 0.488 | 1.07 | 1.09 | 1.01 | 0.805
6 | NCI-H2087 | 0.209 | 0.178 | 0.234 | 0.193 | 0.173 | 1.06 | 1.22 | 1.06 | 0.956 | 0.65 | 1.02 | 0.983 | 0.981 | 0.49 | 0.345 | 1.2 | 1.08 | 0.995 | 0.956
7 | NCI-H2170 | 0.936 | 0.987 | 0.84 | 0.919 | 0.399 | 1 | 1.07 | 1.06 | 0.995 | 0.773 | 0.995 | 0.996 | 0.984 | 0.708 | 0.525 | 0.947 | 1 | 0.961 | 0.893
8 | HCC-78 | 0.926 | 0.836 | 0.899 | 0.756 | 0.566 | 0.935 | 1.06 | 0.966 | 0.892 | 0.832 | 0.991 | 1.09 | 0.65 | 0.467 | 0.343 | 1.09 | 1.04 | 0.975 | 0.866
9 | NCI-H1395 | 0.962 | 0.956 | 0.898 | 1.02 | 0.875 | 0.846 | 0.935 | 0.724 | 0.801 | 0.821 | 1.1 | 1.15 | 0.962 | 0.745 | 0.601 | 1.04 | 1.04 | 0.827 | 0.621
10 | NCI-H2228 | 0.578 | 0.615 | 0.449 | 0.48 | 0.454 | 0.899 | 1.16 | 1.01 | 0.92 | 0.418 | 0.852 | 1.01 | 0.944 | 0.625 | 0.359 | 0.966 | 1.02 | 0.808 | 0.71
11 | H3255 | 0.703 | 0.588 | 0.604 | 0.663 | 0.421 | 0.944 | 0.956 | 0.945 | 0.951 | 0.8 | 0.98 | 0.915 | 0.764 | 0.535 | 0.369 | 1.07 | 1.04 | 1.04 | 0.829
12 | HCC-15 | 0.413 | 0.423 | 0.343 | 0.325 | 0.278 | 1.03 | 1.09 | 0.971 | 0.966 | 0.75 | 0.939 | 0.962 | 0.899 | 0.457 | 0.333 | 1.04 | 1.1 | 0.989 | 0.833
13 | NCI-H727 | 0.378 | 0.332 | 0.374 | 0.416 | 0.364 | 0.973 | 1.1 | 0.878 | 0.9 | 1.02 | 0.892 | 0.895 | 0.887 | 0.614 | 0.545 | 0.976 | 1.02 | 1.01 | 0.852
14 | NCI-H2023 | 0.509 | 0.717 | 0.564 | 0.416 | 0.246 | 1.08 | 1.13 | 0.85 | 0.83 | 0.496 | 0.849 | 0.786 | 0.495 | 0.166 | 0.0931 | 0.983 | 1.04 | 0.853 | 0.598
15 | HCC-44 | 1.12 | 1.31 | 1.04 | 1.09 | 1 | 0.986 | 0.919 | 0.97 | 1.07 | 0.959 | 0.99 | 0.858 | 0.773 | 0.414 | 0.275 | 1.02 | 0.957 | 0.93 | 0.962
16 | NCI-H522 | 0.797 | 0.901 | 0.681 | 0.758 | 0.592 | 0.945 | 0.927 | 0.888 | 0.988 | 0.955 | 1.03 | 0.967 | 1.19 | 1.11 | 0.646 | 1.04 | 1.01 | 0.875 | 0.827
17 | ChaGo-K-1 | 0.906 | 0.987 | 0.941 | 0.804 | 0.602 | 0.949 | 1.07 | 0.897 | 1.01 | 0.837 | 1.04 | 0.934 | 1.11 | 0.961 | 0.881 | 1.06 | 1.01 | 0.949 | 0.855
